Marks after values point to notes of the source that are not given here.
What was measured:
[1] = tested on: B. suis in J774A.1 murine macrophage-like cells; assay type: cell-based, Brucella suis
Brucella suis 1330 = assay type: cell-based
Brucella abortus 2308 = assay type: cell-based
Brucella melitensis 16M = assay type: cell-based

Row | Substance | Log CFU [1] [Log CFU] | Log reduction [1] | Log CFU/100 μL/well (Brucella suis 1330) | Log reduction (Brucella suis 1330) | inhibition of growth of B. suis in culture (in words) (Brucella suis 1330) | inhibition of intracellular B. suis (in words) [1] | Log CFU/mL (Brucella suis 1330) [Log CFU/mL] | effectiveness against B. abortus 2308 (in words) (Brucella abortus 2308) | effectiveness against B. melitensis 16M (in words) (Brucella melitensis 16M)
1 | H-KFFKFFKFFK-O-catactcttcct-NH2 [Anti-lacZ, reference compound] | 3.45 ± 0.31 | +0.17 | 2.83 ± 0.13 Log CFU/100 μL/well | 0.23 | did not inhibit the growth |  |  |  | 
2 | H-KFFKFFKFFK-O-catatcgtcgga-NH2 [gyrA] | 2.47 ± 0.51 | 0.81 ^* | 3.92 ± 0.06 Log CFU/100 μL/well | 0.23 | not in Brucella cultures | showed significant inhibition |  |  | 
3 | H-KFFKFFKFFK-O-catcgtcgctc –NH2 [rpoB] |  |  | 0 ^* Log CFU/100 μL/well |  | significantly inhibited the growth |  | 0 |  | 
4 | H-KFFKFFKFFK-O-cattacagatt-NH2 [dnaG] | 1.78 ± 0.56 | 1.50 ^* | 2.91 ± 0.02 Log CFU/100 μL/well | 0.15 | not in Brucella cultures | showed significant inhibition |  |  | 
5 | H-KFFKFFKFFK-O-cattgtgtcgc-NH2 [tsf] |  |  | 1.02 ± 0.92 Log CFU/100 μL/well | 2.04 ^* | significantly inhibited the growth |  |  |  | 
6 | H-KFFKFFKFFK-O-catttttcgtct-NH2 [asd] | 1.84 ± 0.50 | 1.44 ^* | 3.27 ± 0.09 Log CFU/100 μL/well |  | not in Brucella cultures | showed significant inhibition |  |  | 
7 | H-KFFKFFKFFK-O-ctcatgtcgg-NH2 [acpP] | 3.37 ± 0.18 | +0.09 | 3.05 ± 0.10 Log CFU/100 μL/well | 0.01 |  |  |  |  | 
8 | H-KFFKFFKFFK-O-gctcatttcgc-NH2 [kdtA] |  |  | 1.56 ± 1.10 Log CFU/100 μL/well | 1.50 ^* | significantly inhibited the growth |  |  |  | 
9 | H-KFFKFFKFFK-O-ttcatgcctgt-NH2 [polA] | 2.27 ± 0.69 | 1.01 ^* | 0.54 ± 0.09 Log CFU/100 μL/well |  | significantly inhibited the growth | showed significant inhibition |  | effective | effective

From publication PMC3834731 (International journal of antimicrobial agents, 2013)
